These results are taken from patent US12162893B2 (Erasca, Inc., priority 2020, dated 2024).

The assay concerns the target T1, mutant G12C K-RAS (Homo sapiens, UniProt P01116, G12C).
T1 construct: made in house; host or cells: E. coli BL21
The assay is described as follows: covalent adduct formation (CAF) with mutant G12C K-RAS. The class given is binding. The note with it: for % CAF @ 10 μM,1 h: Table 6. The method, then: Embodiments disclosed herein are further illustrated by the following examples in Tables 1-4 and the Examples hereinbelow. The Tables indicate the compound number, structure, the observed mass spectral molecular weight peak, and covalent adduct formation (CAF) with a mutant G12C K-RAS after 60 minutes at a concentration of 10 micromolar.

Take `C=CC(=O)N1C[C@H](C)N(c2nc(=O)n3c4c(c(-c5c(C)ccc6[nH]ncc56)c(Cl)cc24)OC[C@H]3CCCN2C[C@@H]3C[C@H]2CO3)C[C@H]1C` (atropisomer, axis not shown) [Example 325, (3R,10S)-3-(3-((1S,4S)-2-oxa-5-azabicyclo[2.2.1]heptan-5-yl)propyl)-7-((2S,5R)-4-acryloyl-2,5-dimethylpiperazin-1-yl)-9-chloro-10-(5-methyl-1H-indazol-4-yl)-2,3-dihydro-5H-[1,4]oxazino[2,3,4-ij]quinazolin-5-one]: the “% CAF @ 10 μM,1 h” value was found to be 0%.

As to `C=CC(=O)N1C[C@H](C)N(c2nc(=O)n3c4c(c(-c5ccc(F)cc5)c(Cl)cc24)OCC3CN(C)C)C[C@H]1C` (stereo partly drawn) [Example 34, 7-((2S,5R)-4-acryloyl-2,5-dimethylpiperazin-1-yl)-9-chloro-3-((dimethylamino)methyl)-10-(4-fluorophenyl)-2H-[1,4]oxazino[2,3,4-ij]quinazolin-5(3H)-one], the “% CAF (60 min)” value (Table 2, Pyrimidone Core-Morpholine Substituted, after 60 minutes at 10 micromolar) is 77.4%.

On to `C=CC(=O)N1C[C@H](C)N(c2nc(=O)n3c4c(c(-c5ccc(F)cc5F)c(Cl)cc24)OC[C@H]3CC2CCN(C3COC3)CC2)C[C@H]1C` [Example 316, (3R)-7-((2S,5R)-4-acryloyl-2,5-dimethylpiperazin-1-yl)-9-chloro-10-(2,4-difluorophenyl)-3-((1-(oxetan-3-yl)piperidin-4-yl)methyl)-2H-[1,4]oxazino[2,3,4-ij]quinazolin-5(3H)-one], for which the “% CAF @ 10 μM,1 h” value is recorded as 84.2%.

Take `C=CC(=O)N1C[C@H](C)N(c2nc(=O)n3c4c(c(-c5ccc(F)cc5F)c(Cl)cc24)OC[C@H]3CCCN2CC(F)C2)C[C@H]1C` [Example 279, (3R)-7-((2S,5R)-4-acryloyl-2,5-dimethylpiperazin-1-yl)-9-chloro-10-(2,4-difluorophenyl)-3-(3-(3-fluoroazetidin-1-yl)propyl)-2,3-dihydro-5H-[1,4]oxazino[2,3,4-ij]quinazolin-5-one]: the “% CAF @ 10 μM,1 h” value is 97.5%.

Regarding `C=CC(=O)N1C[C@H](C)N(c2nc(=O)n3c4c(c(-c5ccc(F)cc5F)c(Cl)cc24)O[C@@H](CCCN2CCOCC2)C3)C[C@H]1C` [Example 258, (2S)-7-((2S,5R)-4-acryloyl-2,5-dimethylpiperazin-1-yl)-9-chloro-10-(2,4-difluorophenyl)-2-(3-morpholinopropyl)-2,3-dihydro-5H-[1,4]oxazino[2,3,4-ij]quinazolin-5-one], the “% CAF @ 10 μM,1 h” value came out at 17.7%.

As to `C=CC(=O)N1C[C@H](C)N(c2nc(=O)n3c4c(c(-c5cc(Cl)ccc5F)c(Cl)cc24)OC[C@H]3CCCN2CCOCC2)C[C@H]1C` [Example 216, (3R)-7-((2S,5R)-4-acryloyl-2,5-dimethylpiperazin-1-yl)-9-chloro-10-(5-chloro-2-fluorophenyl)-3-(3-morpholinopropyl)-2,3-dihydro-5H-[1,4]oxazino[2,3,4-ij]quinazolin-5-one], the “% CAF @ 10 μM,1 h” value worked out at 73.8%.

For `C=CC(=O)N1C[C@H](C)N(c2nc(=O)n3c4c(c(-c5ccc(F)cc5F)c(Cl)cc24)OC[C@H]3CC2CCN(CC)CC2)C[C@H]1C` [Example 333, (3R)-7-((2S,5R)-4-acryloyl-2,5-dimethylpiperazin-1-yl)-9-chloro-10-(2,4-difluorophenyl)-3-((1-ethylpiperidin-4-yl)methyl)-2H-[1,4]oxazino[2,3,4-ij]quinazolin-5(3H)-one], the “% CAF @ 10 μM,1 h” value amounted to 83.9%.

`C=CC(=O)N1C[C@H](C)N(c2nc(=O)n3c4c(c(-c5ccc(F)cc5F)c(Cl)cc24)OC[C@@H]3CN(C)CC(F)(F)F)C[C@H]1C` [Example 237, (3S)-7-((2S,5R)-4-acryloyl-2,5-dimethylpiperazin-1-yl)-9-chloro-10-(2,4-difluorophenyl)-3-((methyl(2,2,2-trifluoroethyl)amino)methyl)-2H-[1,4]oxazino[2,3,4-ij]quinazolin-5(3H)-one]: the “% CAF @ 10 μM,1 h” value is on record as 78.5%.
